Measured values reported in PubChem BioAssay (NCI).
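Cells were grown in 96-well plates and exposed to each compound for 48 hours at five concentrations; endpoints were interpolated linearly between bracketing concentrations, or set to the highest concentration if not reached. At the GI50, growth is halved. TGI: concentration producing complete growth inhibition.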

What was measured:
Test in all cases: NCI anticancer screen, dose series, 48 h
SW-620 colon = system: SW-620 colon
CCRF-CEM leukemia = system: CCRF-CEM leukemia
EKVX NSCLC = system: EKVX NSCLC
A498 renal = system: A498 renal
MCF7 breast = system: MCF7 breast
OVCAR-8 ovarian = system: OVCAR-8 ovarian
COLO 205 colon = system: COLO 205 colon
SK-MEL-2 melanoma = system: SK-MEL-2 melanoma
SN12C renal = system: SN12C renal
ACHN renal = system: ACHN renal
NCI-H460 lung = system: NCI-H460 lung
NCI-H23 lung = system: NCI-H23 lung
CAKI-1 renal = system: CAKI-1 renal
SF-268 CNS = system: SF-268 CNS
MDA-MB-231 breast = system: MDA-MB-231 breast
HOP-92 NSCLC = system: HOP-92 NSCLC
SNB-75 CNS = system: SNB-75 CNS
MOLT-4 leukemia = system: MOLT-4 leukemia
HT29 colon = system: HT29 colon
SR leukemia = system: SR leukemia
RPMI-8226 leukemia = system: RPMI-8226 leukemia
HCC-2998 colon = system: HCC-2998 colon
NCI-H226 lung = system: NCI-H226 lung
UACC-257 melanoma = system: UACC-257 melanoma
PC-3 prostate = system: PC-3 prostate
786-0 renal = system: 786-0 renal
SK-OV-3 ovarian = system: SK-OV-3 ovarian
SK-MEL-28 melanoma = system: SK-MEL-28 melanoma
HOP-62 NSCLC = system: HOP-62 NSCLC
UO-31 renal = system: UO-31 renal
HCT-116 colon = system: HCT-116 colon
NCI-H522 lung = system: NCI-H522 lung
U251 CNS = system: U251 CNS
SNB-19 CNS = system: SNB-19 CNS
OVCAR-5 ovarian = system: OVCAR-5 ovarian
NCI/ADR-RES ovarian = system: NCI/ADR-RES ovarian
DU-145 prostate = system: DU-145 prostate
K-562 leukemia = system: K-562 leukemia
OVCAR-4 ovarian = system: OVCAR-4 ovarian
HS 578T breast = system: HS 578T breast
TK-10 renal = system: TK-10 renal
LOX IMVI melanoma = system: LOX IMVI melanoma
A549 NSCLC = system: A549 NSCLC
SK-MEL-5 melanoma = system: SK-MEL-5 melanoma
HL-60(TB) leukemia = system: HL-60(TB) leukemia
T-47D breast = system: T-47D breast
HCT-15 colon = system: HCT-15 colon
OVCAR-3 ovarian = system: OVCAR-3 ovarian
MDA-MB-435 = system: MDA-MB-435
SF-539 CNS = system: SF-539 CNS
MALME-3M melanoma = system: MALME-3M melanoma
BT-549 breast = system: BT-549 breast
SF-295 CNS = system: SF-295 CNS
IGROV1 ovarian = system: IGROV1 ovarian
UACC-62 melanoma = system: UACC-62 melanoma
KM12 colon = system: KM12 colon
M14 melanoma = system: M14 melanoma
RXF 393 renal = system: RXF 393 renal

## CN1CCN(c2ccc(Nc3nc(NCCCNS(=O)(=O)c4ccc(Cl)cc4)c4sccc4n3)cc2)CC1
SW-620 colon
  GI50: 5.2 µM
  TGI: 18.6 µM
CCRF-CEM leukemia
  GI50: 4.22 µM
  TGI: > 100 µM
EKVX NSCLC
  GI50: 14.1 µM
  TGI: 30 µM
A498 renal
  GI50: 20.4 µM
  TGI: 34.8 µM
MCF7 breast
  GI50: 6.47 µM
  TGI: 21.1 µM
OVCAR-8 ovarian
  GI50: 8.57 µM
  TGI: 53.8 µM
COLO 205 colon
  GI50: 15.6 µM
  TGI: 37.8 µM
SK-MEL-2 melanoma
  GI50: 17.2 µM
  TGI: 33.1 µM
SN12C renal
  GI50: 12.9 µM
  TGI: 25.5 µM
ACHN renal
  GI50: 11.2 µM
  TGI: 23.2 µM
NCI-H460 lung
  GI50: 8.01 µM
  TGI: 22 µM
NCI-H23 lung
  GI50: 14.1 µM
  TGI: 29.1 µM
CAKI-1 renal
  GI50: 15.5 µM
  TGI: 28.8 µM
SF-268 CNS
  GI50: 11.5 µM
  TGI: 34.9 µM
MDA-MB-231 breast
  GI50: 4.94 µM
  TGI: 17.3 µM
HOP-92 NSCLC
  GI50: 2.16 µM
  TGI: 16.2 µM
SNB-75 CNS
  GI50: 13.5 µM
  TGI: 26.5 µM
MOLT-4 leukemia
  GI50: 3.58 µM
  TGI: 33.4 µM
HT29 colon
  GI50: 3.75 µM
  TGI: 19.4 µM
SR leukemia
  GI50: 2.83 µM
  TGI: > 100 µM
RPMI-8226 leukemia
  GI50: 3.04 µM
  TGI: 9.67 µM
HCC-2998 colon
  GI50: 7.31 µM
  TGI: 20 µM
NCI-H226 lung
  GI50: 12 µM
  TGI: 24.9 µM
UACC-257 melanoma
  GI50: 2.39 µM
  TGI: 6.44 µM
PC-3 prostate
  GI50: 9.62 µM
  TGI: 26.4 µM
786-0 renal
  GI50: 2.12 µM
  TGI: 6.29 µM
SK-OV-3 ovarian
  GI50: 29 µM
  TGI: 60.9 µM
SK-MEL-28 melanoma
  GI50: 2.38 µM
  TGI: 6.22 µM
HOP-62 NSCLC
  GI50: 19.6 µM
  TGI: 37 µM
UO-31 renal
  GI50: 13 µM
  TGI: 25.7 µM
HCT-116 colon
  GI50: 2.3 µM
  TGI: 6.99 µM
NCI-H522 lung
  GI50: 11.8 µM
  TGI: 27 µM
U251 CNS
  GI50: 4.06 µM
  TGI: 23.2 µM
SNB-19 CNS
  GI50: 10.6 µM
  TGI: 22.4 µM
OVCAR-5 ovarian
  GI50: 13.3 µM
  TGI: 27.4 µM
NCI/ADR-RES ovarian
  GI50: 19.4 µM
  TGI: 58.3 µM
DU-145 prostate
  GI50: 14 µM
  TGI: 28.9 µM
K-562 leukemia
  GI50: 2.95 µM
  TGI: > 100 µM
OVCAR-4 ovarian
  GI50: 12.2 µM
  TGI: 25.1 µM
HS 578T breast
  GI50: 13.8 µM
  TGI: 44.7 µM
TK-10 renal
  GI50: 19.6 µM
  TGI: 35.7 µM
LOX IMVI melanoma
  GI50: 1.69 µM
  TGI: 3.48 µM
A549 NSCLC
  GI50: 18.7 µM
  TGI: 61.7 µM
SK-MEL-5 melanoma
  GI50: 10.2 µM
  TGI: 22 µM
HL-60(TB) leukemia
  GI50: 2.12 µM
  TGI: 5.11 µM
T-47D breast
  GI50: 22.1 µM
  TGI: 54.1 µM
HCT-15 colon
  GI50: 3.08 µM
  TGI: 12.4 µM
OVCAR-3 ovarian
  GI50: 6.81 µM
  TGI: 35.9 µM
MDA-MB-435
  GI50: 9.17 µM
  TGI: 21.2 µM
SF-539 CNS
  GI50: 1.82 µM
  TGI: 3.55 µM
MALME-3M melanoma
  GI50: 2.12 µM
  TGI: 3.91 µM
BT-549 breast
  GI50: 3.12 µM
  TGI: 14.4 µM
SF-295 CNS
  GI50: 12.2 µM
  TGI: 27 µM
IGROV1 ovarian
  GI50: 10.7 µM
  TGI: 22.8 µM
UACC-62 melanoma
  GI50: 3 µM
  TGI: 11.1 µM
KM12 colon
  GI50: 16.4 µM
  TGI: 51.1 µM
M14 melanoma
  GI50: 2 µM
  TGI: 3.94 µM

## COc1cc2c3c(n(CCCN4CCC[C@H]4C(N)=O)c(=O)c2cc1OC)-c1cc2c(cc1C3=O)OCO2
SW-620 colon
  GI50: 0.0897 µM
  TGI: > 48.2 µM
CCRF-CEM leukemia
  GI50: < 0.0146 µM
  TGI: 4.6 µM
EKVX NSCLC
  TGI: > 100 µM
A498 renal
  TGI: > 100 µM
MCF7 breast
  GI50: < 0.0107 µM
  TGI: 1.42 µM
OVCAR-8 ovarian
  GI50: 0.0783 µM
  TGI: 2.71 µM
COLO 205 colon
  GI50: 0.223 µM
  TGI: > 100 µM
SK-MEL-2 melanoma
  GI50: > 100 µM
  TGI: > 100 µM
SN12C renal
  GI50: 0.0422 µM
  TGI: > 52.4 µM
ACHN renal
  GI50: 0.0274 µM
  TGI: 3.86 µM
NCI-H460 lung
  GI50: < 0.0152 µM
NCI-H23 lung
  GI50: 0.0448 µM
  TGI: 2.32 µM
CAKI-1 renal
  GI50: 0.0162 µM
  TGI: 20.7 µM
SF-268 CNS
  GI50: 0.0398 µM
  TGI: > 100 µM
MDA-MB-231 breast
  GI50: 1.16 µM
  TGI: 16.2 µM
HOP-92 NSCLC
  GI50: 0.808 µM
  TGI: > 29.5 µM
SNB-75 CNS
  GI50: 0.0301 µM
  TGI: 1.2 µM
MOLT-4 leukemia
  GI50: < 0.0125 µM
  TGI: 0.178 µM
HT29 colon
  GI50: 0.0674 µM
  TGI: 0.671 µM
SR leukemia
  TGI: 0.54 µM
RPMI-8226 leukemia
  GI50: 0.0829 µM
  TGI: 2.36 µM
HCC-2998 colon
  GI50: 0.224 µM
  TGI: 13.8 µM
NCI-H226 lung
  GI50: 0.0481 µM
  TGI: 1.18 µM
UACC-257 melanoma
  GI50: 0.232 µM
  TGI: > 100 µM
RXF 393 renal
  GI50: 0.167 µM
  TGI: 2.32 µM
PC-3 prostate
  GI50: 0.329 µM
  TGI: 22.6 µM
786-0 renal
  GI50: 0.0392 µM
  TGI: 1.53 µM
SK-OV-3 ovarian
  GI50: 0.0396 µM
  TGI: 1.26 µM
SK-MEL-28 melanoma
  GI50: 1.88 µM
  TGI: > 100 µM
HOP-62 NSCLC
  GI50: 0.0293 µM
  TGI: 12.7 µM
UO-31 renal
  GI50: 0.0409 µM
  TGI: > 41 µM
HCT-116 colon
  GI50: 0.0322 µM
  TGI: 3.67 µM
NCI-H522 lung
  GI50: 0.0236 µM
  TGI: 4.48 µM
U251 CNS
  GI50: 0.0249 µM
  TGI: 1.89 µM
SNB-19 CNS
  GI50: 0.0405 µM
  TGI: > 100 µM
OVCAR-5 ovarian
  GI50: 0.319 µM
  TGI: 26.5 µM
NCI/ADR-RES ovarian
  GI50: 0.154 µM
  TGI: > 100 µM
DU-145 prostate
  GI50: 0.0382 µM
  TGI: 12.6 µM
K-562 leukemia
  GI50: 0.041 µM
  TGI: 2.58 µM
OVCAR-4 ovarian
  GI50: 0.905 µM
  TGI: 5.69 µM
HS 578T breast
  GI50: > 100 µM
  TGI: > 100 µM
TK-10 renal
  GI50: > 42.3 µM
  TGI: > 100 µM
LOX IMVI melanoma
  GI50: 0.0193 µM
  TGI: 0.485 µM
A549 NSCLC
  GI50: 0.103 µM
  TGI: > 57.3 µM
SK-MEL-5 melanoma
  GI50: 0.0407 µM
  TGI: 0.199 µM
HL-60(TB) leukemia
  GI50: 0.0371 µM
  TGI: 3.7 µM
T-47D breast
  GI50: 0.0313 µM
HCT-15 colon
  GI50: 0.318 µM
  TGI: 5.8 µM
OVCAR-3 ovarian
  GI50: 0.161 µM
  TGI: 3.66 µM
MDA-MB-435
  GI50: 0.148 µM
  TGI: 14 µM
SF-539 CNS
  GI50: 0.0296 µM
  TGI: 0.541 µM
MALME-3M melanoma
  GI50: 0.375 µM
  TGI: > 57 µM
BT-549 breast
  GI50: 0.0707 µM
  TGI: 13.9 µM
SF-295 CNS
  GI50: 0.0179 µM
  TGI: 15 µM
IGROV1 ovarian
  GI50: 0.379 µM
  TGI: 34.9 µM
UACC-62 melanoma
  GI50: 0.0193 µM
  TGI: 3.21 µM
KM12 colon
  GI50: 0.415 µM
  TGI: 11.1 µM
M14 melanoma
  GI50: 0.0358 µM
  TGI: 2.46 µM
